These results are taken from US8324264B1, “Inhibitors of bacterial biofilms and related methods” (Sequoia Sciences, Inc., priority 2011, dated 2012).

Converted amounts (≈) assume the structure as drawn. Like-named read-outs stand apart in the source and are kept apart here. Some results are limits rather than exact numbers.

In one series the test system is E. coli biofilms. The series can be described thus: Biofilm growth assay (spreading biofilm on semi-solid agar), E. coli. The class given is cell-based. The arrangement: E. coli (n = 10) inhibitory concentration in the biofilm growth assay: unit: ug/mL. To be noted: for E. coli (n = 10) inhibitory concentration in the biofilm growth assay: Table 6, n = 10 isolates; for IC85: Escherichia coli, read-out: E. coli: concentration that reduces the area of the spreading biofilm by greater than or equal to 85%. The procedure, abridged:
(§1)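 Values are compound concentrations (μg/ml) that cut the spreading-biofilm zone area by ≥85% relative to negative controls after overnight 37 °C growth from 5 μL central inoculum. E. coli plates: LB, 0.6% agar, 0.5% glucose; P. aeruginosa plates: M8 agar plus 0.2% glucose, 100 μM CaCl2, 1 mM MgSO4, 0.5% Casamino acids.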

A further series has as its system P. aeruginosa biofilms. The series can be described thus: Biofilm growth assay (spreading biofilm on semi-solid agar), P. aeruginosa. Format: cell-based. Details: P. aeruginosa (n = 10) inhibitory concentration in the biofilm growth assay: unit: ug/mL. The note with it: for P. aeruginosa (n = 10) inhibitory concentration in the biofilm growth assay: Table 6, n = 10 isolates; for IC85: Pseudomonas aeruginosa, read-out: P. aeruginosa: concentration that reduces the area of the spreading biofilm by greater than or equal to 85%. In outline:
as §1

The next series deals with Salmonella spp. The series can be described thus: Biofilm growth assay, Salmonella spp. Format: cell-based. To be noted: Table 6, n = 6 isolates; Nutrient Broth, 0.5% glucose, 0.5% Noble agar. As to the method: The biofilm growth assay was carried out to measure swarming or biofilm spreading on semi-solid agar media in round plates (for example, 100×15 mm), also referred to as Petri dishes. For E. coli, the plates contained LB medium with 0.6% agar and 0.5% glucose. P. aeruginosa plates were made with M8 agar supplemented with 0.2% glucose, 100 μM CaCl2, 1 mM MgSO4, and 0.5% Casamino acids. The agar plates of this assay consisted of 0.4% to 0.7% agar (Bacto or Noble agar), although other media may also be used as described in the literature and known to those skilled in the art. Test compounds at the desired concentration were added to the cooled, autoclaved media. Portions of the media were then poured into the plates (20 mL/plate), and the plates allowed to dry at room temperature for approximately 3 to 4 hours. Alternatively, however, plates may be dried in a laminar flow hood for approximately fifteen to twenty minutes. Overnight cultures were grown in a 37° C. shaker in LB (E. coli) or TSB (P. aeruginosa). Plates were inoculated by placing 5 μL of the appropriate overnight culture in the centers of the plates. The plates then were incubated overnight at 37° C. The area of the zone of spreading bacteria was then measured and replicates are averaged. Percent inhibition was calculated as 100×(area without compound−area with compound)/(area without compound). An active compound was considered that which reduces the area of the spreading biofilm compared to negative controls by greater than or equal to 85%. The values shown in Table 1 are the concentrations of compounds (μg/ml) tested in the biofilm growth assay that reduce the area of the spreading biofilm compared to negative controls by greater than or equal to 85% unless noted differently in Table 1. A > (“greater than” symbol) as used in Table 1 is well understood to those skilled in the art as an indication that the listed concentration was not effective at this concentration.
(§2) Table 6, below, lists the inhibitory concentrations of select compounds and antibiotics in the biofilm growth assay against various gram-negative bacterial biofilms. “N” means the number of isolates of bacteria tested. The biofilm growth assay procedure detailed in Example I, above, was followed. Burkholderia cepacia used media consisting of M9 salts, 100 μM CaCl2, 1 mM MgSO4, and 0.7% citrate in 0.4% Noble agar. Salmonella spp. used media consisting of Nutrient Broth with 0.5% glucose in 0.5% Noble agar.

In a further series the test system is B. cepacia. The series can be described thus: Biofilm growth assay, Burkholderia cepacia. The class given is cell-based. The note with it: Table 6, n = 10 isolates; M9 salts, 0.7% citrate, 0.4% Noble agar. As to the method:
The biofilm growth assay was carried out to measure swarming or biofilm spreading on semi-solid agar media in round plates (for example, 100×15 mm), also referred to as Petri dishes. For E. coli, the plates contained LB medium with 0.6% agar and 0.5% glucose. P. aeruginosa plates were made with M8 agar supplemented with 0.2% glucose, 100 μM CaCl2, 1 mM MgSO4, and 0.5% Casamino acids. The agar plates of this assay consisted of 0.4% to 0.7% agar (Bacto or Noble agar), although other media may also be used as described in the literature and known to those skilled in the art. Test compounds at the desired concentration were added to the cooled, autoclaved media. Portions of the media were then poured into the plates (20 mL/plate), and the plates allowed to dry at room temperature for approximately 3 to 4 hours. Alternatively, however, plates may be dried in a laminar flow hood for approximately fifteen to twenty minutes. Overnight cultures were grown in a 37° C. shaker in LB (E. coli) or TSB (P. aeruginosa). Plates were inoculated by placing 5 μL of the appropriate overnight culture in the centers of the plates. The plates then were incubated overnight at 37° C. The area of the zone of spreading bacteria was then measured and replicates are averaged. Percent inhibition was calculated as 100×(area without compound−area with compound)/(area without compound). […] A > (“greater than” symbol) as used in Table 1 is well understood to those skilled in the art as an indication that the listed concentration was not effective at this concentration.
as §2

Setting [1] is: biofilm growth assay, overnight 37° C., vs negative controls, Tables 1-5.

Regarding `CC(C)(O/N=C(\C(=O)N[C@@H]1C(=O)N2C(C(=O)[O-])=C(C[n+]3ccccc3)CS[C@H]12)c1csc(N)n1)C(=O)O` [Ceftazidime, ceftazidime, reference compound], the “E. coli (n = 10) inhibitory concentration in the biofilm growth assay” value in the series with E. coli biofilms is recorded as 0.25. Also, the “P. aeruginosa (n = 10) inhibitory concentration in the biofilm growth assay” value in the series with P. aeruginosa biofilms is on record as 4. Also, the “Salmonella spp. (n = 6) inhibitory concentration in the biofilm growth assay” value in the series with Salmonella spp. was found to be 0.5. For the same molecule, in the series on B. cepacia, the “B. cepacia (n = 10) inhibitory concentration in the biofilm growth assay” value is over 8.

`CC1(C)CC[C@]2(C(=O)O)CC[C@]3(C)C(=C(c4cccnc4)CC4[C@@]5(C)Cc6c(n[nH]c6N)C(C)(C)[C@@H]5CC[C@]43C)[C@@H]2C1` (stereo partly drawn) [Example 12, (4aS,6aS,6bR,8aR,13aR,15bS)-12-Amino-2,2,6a,6b,9,9,13a-heptamethyl-15-(pyridin-3-yl)-2,3,4,4a,5,6,6a,6b,7,8,8a,9,11,13,13a,13b,14,15b-octadecahydro-1H-chryseno[1,2-f]indazole-4-a-carboxylic acid]: the melting point – broadly, the temperature of the solid-liquid transition – is over 300 °C. For the same molecule, the IC85 in the series with E. coli biofilms (setting [1]) is 1 µg/mL (≈ 1.75 µM). Also, the IC85 with P. aeruginosa biofilms (setting [1]) was 0.5 µg/mL (≈ 0.876 µM).

`CC1(C)CC[C@]2(C(=O)Nc3nnn[nH]3)CC[C@]3(C)C(=CCC4[C@@]5(C)Cc6c(n[nH]c6N)C(C)(C)C5CC[C@]43C)C2C1` (stereo partly drawn) [Compound 61, (4aS,6aS,6bR,13aR)-12-Amino-2,2,6a,6b,9,9,13a-heptamethyl-N-(1H-tetrazol-5-yl)-2,3,4,4a,5,6,6a,6b,7,8,8a,9,11,13,13a,13b,14,15b-octadecahydro-1H-chryseno[1,2-f]indazole-4-a-carboxamide]: the melting point was over 300 °C. Further, the IC85 with E. coli biofilms worked out at 0.5 µg/mL (≈ 0.892 µM). Moreover, in the series on P. aeruginosa biofilms, the IC85 amounted to 0.5 µg/mL (≈ 0.892 µM).

Molecule `CC1(C)CC[C@]2(c3n[nH]c(O)c3CCNC(N)=O)CC[C@]3(C)C(=CCC4[C@@]5(C)Cc6c(n[nH]c6N)C(C)(C)C5CC[C@]43C)C2C1` (stereo partly drawn) [Compound 87, 1-(2-(3-((4aS,6aS,6bR,13aR)-12-Amino-2,2,6a,6b,9,9,13a-heptamethyl-2,3,4,4a,5,6,6a,6b,7,8,8a,9,11,13,13a,13b,14,15b-octadecahydro-1H-chryseno[1,2-f]indazol-4-a-yl)-5-hydroxy-1H-pyrazol-4-yl)ethyl)urea] registered a melting point of over 300 °C. Moreover, in the series with E. coli biofilms (setting [1]), the IC85 is 1 µg/mL (≈ 1.62 µM). In addition, the IC85 in the series with P. aeruginosa biofilms (setting [1]) stood at 0.5 µg/mL (≈ 0.809 µM).

`CC1(C)CC[C@]2(C(=O)Nc3cc(S)n[nH]3)CC[C@]3(C)C(=CCC4[C@@]5(C)Cc6c(n[nH]c6N)C(C)(C)C5CC[C@]43C)C2C1` (stereo partly drawn) [Compound 79, (4aS,6aS,6bR,13aR)-12-Amino-N-(3-mercapto-1H-pyrazol-5-yl)-2,2,6a,6b,9,9,13a-heptamethyl-2,3,4,4a,5,6,6a,6b,7,8,8a,9,11,13,13a,13b,14,15b-octadecahydro-1H-chryseno[1,2-f]indazole-4-a-carboxamide]: the melting point was over 300 °C. In addition, in the series with E. coli biofilms (setting [1]), the IC85 came to 0.5 µg/mL (≈ 0.846 µM). Besides, the IC85 with P. aeruginosa biofilms (setting [1]) was found to be 0.25 µg/mL (≈ 0.423 µM).

On to `C=CC1=C2[C@@H]3CC(C)(C)CC[C@]3(C(=O)O)CC[C@@]2(C)[C@]2(C)CC[C@H]3C(C)(C)c4n[nH]c(N)c4C[C@]3(C)C2C1` (stereo partly drawn) [Example 13, (4aS,6aS,6bR,8aR,13aR,15bS)-12-Amino-2,2,6a,6b,9,9,13a-heptamethyl-15-vinyl-2,3,4,4a,5,6,6a,6b,7,8,8a,9,11,13,13a,13b,14,15b-octadecahydro-1H-chryseno[1,2-f]indazole-4-a-carboxylic acid], for which the melting point is over 300 °C. The IC85 in the series with E. coli biofilms (setting [1]) is 1 µg/mL (≈ 1.92 µM). In addition, the IC85 in the series on P. aeruginosa biofilms (setting [1]) was determined as 0.5 µg/mL (≈ 0.962 µM).

Regarding `CC1(C)CC[C@]2(C(=O)Nc3cc(N)n[nH]3)CC[C@]3(C)C(=CCC4[C@@]5(C)Cc6c(n[nH]c6N)C(C)(C)C5CC[C@]43C)C2C1` (stereo partly drawn) [Compound 69, (4aS,6aS,6bR,13aR)-12-amino-N-(3-amino-1H-pyrazol-5-yl)-2,2,6a,6b,9,9,13a-heptamethyl-2,3,4,4a,5,6,6a,6b,7,8,8a,9,11,13,13a,13b,14,15b-octadecahydro-1H-chryseno[1,2-f]indazole-4-a-carboxamide], the melting point was over 300 °C. Further, the IC85 with E. coli biofilms (setting [1]) worked out at 1 µg/mL (≈ 1.74 µM). The IC85 with P. aeruginosa biofilms (setting [1]) was 1 µg/mL (≈ 1.74 µM).

Consider `NC[C@H]1O[C@H](O[C@H]2[C@H](O)[C@@H](O[C@H]3O[C@H](CO)[C@@H](O)[C@H](N)[C@H]3O)[C@H](N)C[C@@H]2N)[C@H](N)C[C@@H]1O` [Tobramycin, tobramcyin, reference compound], for which the “E. coli (n = 10) inhibitory concentration in the biofilm growth assay” value in the series with E. coli biofilms turned out to be 16. In addition, the “P. aeruginosa (n = 10) inhibitory concentration in the biofilm growth assay” value in the series with P. aeruginosa biofilms stood at 4. The “Salmonella spp. (n = 6) inhibitory concentration in the biofilm growth assay” value with Salmonella spp. turned out to be 8. For the same molecule, the “B. cepacia (n = 10) inhibitory concentration in the biofilm growth assay” value with B. cepacia is recorded as over 64.

`C/C=C/C1=C2[C@@H]3CC(C)(C)CC[C@]3(C(=O)O)CC[C@@]2(C)[C@]2(C)CC[C@H]3C(C)(C)c4n[nH]c(N)c4C[C@]3(C)C2C1` (stereo partly drawn) [Example 5, (4aS,6aS,6bR,8aR,13aR,15bS)-12-Amino-2,2,6a,6b,9,9,13a-heptamethyl-15-((E)-prop-1-enyl)-2,3,4,4a,5,6,6a,6b,7,8,8a,9,11,13,13a,13b,14,15b-octadecahydro-1H-chryseno[1,2-f]indazole-4-a-carboxylic acid] gave a melting point of over 300 °C. The IC85 in the series with E. coli biofilms (setting [1]) is 1 µg/mL (≈ 1.87 µM). The IC85 in the series on P. aeruginosa biofilms (setting [1]) was 0.5 µg/mL (≈ 0.937 µM).

Regarding `CC1(C)CC[C@]2(c3n[nH]c(O)c3CCN)CC[C@]3(C)C(=C(c4ccoc4CN4CCOCC4)CC4[C@@]5(C)Cc6c(n[nH]c6N)C(C)(C)[C@@H]5CC[C@]43C)[C@@H]2C1` (stereo partly drawn) [Compound 92, 3-((4aS,6aS,6bR,8aR,13aR,15bS)-12-Amino-2,2,6a,6b,9,9,13a-heptamethyl-15-(2-(morpholinomethyl)furan-3-yl)-2,3,4,4a,5,6,6a,6b,7,8,8a,9,11,13,13a,13b,14,15b-octadecahydro-1H-chryseno[1,2-f]indazol-4-a-yl)-4-(2-aminoethyl)-1H-pyrazol-5-ol], the melting point lay within 238 to 240 °C. In the series on E. coli biofilms (setting [1]), the IC85 was found to be 2 µg/mL (≈ 2.7 µM). The IC85 in the series on P. aeruginosa biofilms (setting [1]) came to 0.5 µg/mL (≈ 0.676 µM).

For `CC[C@H]1OC(=O)[C@H](C)[C@@H](O[C@H]2C[C@@](C)(OC)[C@@H](O)[C@H](C)O2)[C@H](C)[C@@H](O[C@@H]2O[C@H](C)C[C@H](N(C)C)[C@H]2O)[C@](C)(O)C[C@@H](C)CN(C)[C@H](C)[C@@H](O)[C@]1(C)O` [Azithromycin, azithromycin], the “P. aeruginosa (n = 10) inhibitory concentration in the biofilm growth assay” value with P. aeruginosa biofilms was over 16. Further, the “Salmonella spp. (n = 6) inhibitory concentration in the biofilm growth assay” value with Salmonella spp. is listed as over 16. The “B. cepacia (n = 10) inhibitory concentration in the biofilm growth assay” value in the series on B. cepacia is over 16.
